Results from patent US5049389A, “Novel liposome composition for the treatment of interstitial lung diseases” (priority 1989, dated 1991).

Columns and labels:
[1] = rat, in vivo
Description: The amount of drug in the lungs at time zero can be used to determine the amount of free drug in the formulation, since free drug is very rapidly absorbed from the lungs (Dose=free drug+amount in lungs at t=0). This amount also includes any liposome associated drug that was rapidly released ("burst" effect).
The absorption kinetics (sustained release) was determined by measuring percentage of ^14 C BDP remaining in the lungs following the intratracheal instillation of the above described five liposome formulations and one intravenous administration of free drug.
All studies were performed in male Sprague-Dawley rats weighing 250 to 450 g. After fasting for 16 hours, animals were anesthetized by i.m. injection of ketamine (25 mg/kg), xylazine (5 mg/kg) and acepromazine (0.5 mg/ml). During the procedure the animal's body temperature was maintained with a 37° C. heating pad. Additional anesthetic was administered as required, using half the original dose. A midline incision was made in the neck and the right jugular vein and left carotid artery were cannulated with short lengths of polyethylene tubing to which a 23 ga Luer stub adapter (Clay Adams #7565) and plastic 3-way stopcock (Argyle #173518) were attached. Blood samples (0.5-4 ml) were removed from the carotid arterial cannula after first flushing with fresh blood to clear the line. Blood volume removed was replaced with an equal volume of 5% dextrose solution containing 50 U/ml of heparin via the jugular cannula. For intravenous (i.v.) injection studies, drug was injected into the venous cannula with a 500 ul glass syringe via a 22 ga needle and injection cap and flushed with 0.5 to 1.0 ml dextrose solution.
For intratracheal (i.t.) instillation of BDP formulations, (Table V) the trachea was cannulated with a 4 cm long section of Teflon tubing (1.2 mm I.D.), inserted at the level of the fifth tracheal ring below the thyroid cartilage and tied in place with a suture. Excess fluid in the trachea was aspirated through tubing attached to a syringe. […]

[2] = Thin layer chromatographic assay of lung samples for BDP metabolism; format: in vivo, rat; settings: thin layer chromatography
[3] = Partition between octanol and phosphate buffer saline; format: physicochemical; settings: pH 7.4
Description: Nearly all (95%) of the BDP was associated with the octanol.

[4] = system: chronic relapsing Stage II and III pulmonary sarcoidosis; settings: 1200 or 2400 ug daily inhaled via Nebuhaler; cited from earlier work

Row | Compound | drug absorbed before the first time point [1] | apparent half-life in lungs (elimination of released radiolabel, not absorption) ([1]; 0.008 mg/kg) [h] | ^14 C BDP removed from the lungs (absorbed) ([1]; 0.5 h) [%] | metabolism of BDP prior to leaving the lungs [2] | BDP associated with the octanol [3] [%] | improvement in pulmonary sarcoidosis [4]
1 | CCC(=O)OCC(=O)[C@@]1(OC(=O)CC)[C@@H](C)C[C@H]2[C@@H]3CCC4=CC(=O)C=C[C@]4(C)[C@@]3(Cl)[C@@H](O)C[C@@]21C [Beclomethasone dipropionate, beclomethasone dipropionate] | over 98% | 3.0 | 99.7 | no detectable metabolism of BDP prior to leaving the lungs | 95 | –
2 | CCCC1O[C@@H]2C[C@H]3[C@@H]4CCC5=CC(=O)C=C[C@]5(C)[C@H]4[C@@H](O)C[C@]3(C)[C@]2(C(=O)CO)O1 (stereo partly drawn) [budesonide] | – | – | – | – | – | showed improvement in chronic relapsing Stage II and III pulmonary sarcoidosis
